This note sets out measurements from patent publication US11299461B2 (priority 2018, dated 2022).

The term Ki denotes the equilibrium dissociation constant of an inhibitor or competing ligand from its target.

LF 263-C catalytic domain (anthrax lethal factor), sequence (P15917 296-809 limits assumed): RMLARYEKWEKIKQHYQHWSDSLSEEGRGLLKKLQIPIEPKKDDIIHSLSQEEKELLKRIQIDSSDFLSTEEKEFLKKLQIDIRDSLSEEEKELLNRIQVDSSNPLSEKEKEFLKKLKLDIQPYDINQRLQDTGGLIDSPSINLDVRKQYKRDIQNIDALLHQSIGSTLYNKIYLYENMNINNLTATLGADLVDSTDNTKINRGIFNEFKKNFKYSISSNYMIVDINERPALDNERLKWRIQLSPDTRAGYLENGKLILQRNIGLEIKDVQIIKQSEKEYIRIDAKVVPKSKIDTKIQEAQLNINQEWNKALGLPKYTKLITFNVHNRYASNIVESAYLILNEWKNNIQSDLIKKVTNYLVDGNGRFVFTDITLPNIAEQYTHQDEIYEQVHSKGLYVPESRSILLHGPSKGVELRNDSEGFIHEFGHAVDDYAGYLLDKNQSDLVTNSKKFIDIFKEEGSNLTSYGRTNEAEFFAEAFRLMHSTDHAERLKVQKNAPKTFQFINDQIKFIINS

This experiment has as its target LF 263-C catalytic domain (anthrax lethal factor) (Bacillus anthracis, UniProt P15917). As to the kind of experiment: biochemical.
The molecule `CC[C@@H](NCCCC[C@@H](C[C@@H](OC)c1ccc(F)cc1)C(=O)NO)c1ccc(Cl)cn1` [Compound 56, (S)-6-(((R)-1-(5-chloropyridin-2-yl)propyl)amino)-2-((R)-2-(4-fluorophenyl)-2-methoxyethyl)-N-hydroxyhexanamide] showed an inhibition constant (Ki) of 0.79 nM.

`CCN(CCCC[C@@H](C[C@@H](OC)c1ccc(F)c(C)c1)C(=O)NO)Cc1ccc(Cl)cn1` [Compound 57, (S)-6-(((5-chloropyridin-2-yl)methyl)(ethyl)amino)-2-((R)-2-(4-fluoro-3-methylphenyl)-2-methoxyethyl)-N-hydroxyhexanamide]: the Ki was found to be 2.8 nM.

Molecule `CO[C@H](C[C@H](CCCCN[C@@H](c1ccc(Cl)cn1)C(C)C)C(=O)NO)c1ccc(F)c(C)c1` [Compound 58, (S)-6-(((R)-1-(5-chloropyridin-2-yl)-2-methylpropyl)amino)-2-((R)-2-(4-fluoro-3-methylphenyl)-2-methoxyethyl)-N-hydroxyhexanamide] displayed a Ki of 2.3 nM.
